{"source": "paper PMC6409996", "about": "“Pharmacodynamics and Pharmacokinetics of a New Type of Compound Lansoprazole Capsule in Gastric Ulcer Rats and Beagle Dogs: Importance of Adjusting Oxidative Stress and Inflammation” (Pharmaceutics, 2019)", "key": {"COX-2 [1]": {"test_system": "COX-2", "test": "Western blotting determination of gastric tissue for COX-2", "format": "in vivo, rat", "conditions": "LSZ versus model group, p < 0.01", "experimental": "(§1) The homogenate was centrifuged at a force of 12,000 g for 30 min at 4 °C and protein qualification was carried out using a BCA kit. The total protein extract (25 μg per lane) was separated on SDS-polyacrylamide gels and transferred onto PVDF membranes. Nonspecific binding sites on the membrane were blocked by PBS containing 0.1% Tween-20 with 5% bovine serum albumin, which was followed by incubation with rabbit polyclonal primary antibodies against VEGF and COX-2 and β-actin overnight at 4 °C. Immunoreactive bands were visualized using the enhanced chemiluminescent kit. Bands were measured using the Quality One analysis software and the density of each band was normalized to β-actin."}, "[2]": {"test": "Stability of lansoprazole in dog plasma (method validation)", "format": "in vitro ADME", "conditions": "n = 3", "from_the_text": "The method was fully validated in accordance with the US Food and Drug Administration (FDA) guidelines. Specificity, linearity, LLOQ, precision, accuracy, recovery, matrix effect and stability were all experimentally investigated."}, "H^+-K^+-ATP enzyme": {"target": "H^+-K^+-ATP enzyme (Rattus norvegicus, UniProt P09626)", "sequence (P09626 whole entry)": "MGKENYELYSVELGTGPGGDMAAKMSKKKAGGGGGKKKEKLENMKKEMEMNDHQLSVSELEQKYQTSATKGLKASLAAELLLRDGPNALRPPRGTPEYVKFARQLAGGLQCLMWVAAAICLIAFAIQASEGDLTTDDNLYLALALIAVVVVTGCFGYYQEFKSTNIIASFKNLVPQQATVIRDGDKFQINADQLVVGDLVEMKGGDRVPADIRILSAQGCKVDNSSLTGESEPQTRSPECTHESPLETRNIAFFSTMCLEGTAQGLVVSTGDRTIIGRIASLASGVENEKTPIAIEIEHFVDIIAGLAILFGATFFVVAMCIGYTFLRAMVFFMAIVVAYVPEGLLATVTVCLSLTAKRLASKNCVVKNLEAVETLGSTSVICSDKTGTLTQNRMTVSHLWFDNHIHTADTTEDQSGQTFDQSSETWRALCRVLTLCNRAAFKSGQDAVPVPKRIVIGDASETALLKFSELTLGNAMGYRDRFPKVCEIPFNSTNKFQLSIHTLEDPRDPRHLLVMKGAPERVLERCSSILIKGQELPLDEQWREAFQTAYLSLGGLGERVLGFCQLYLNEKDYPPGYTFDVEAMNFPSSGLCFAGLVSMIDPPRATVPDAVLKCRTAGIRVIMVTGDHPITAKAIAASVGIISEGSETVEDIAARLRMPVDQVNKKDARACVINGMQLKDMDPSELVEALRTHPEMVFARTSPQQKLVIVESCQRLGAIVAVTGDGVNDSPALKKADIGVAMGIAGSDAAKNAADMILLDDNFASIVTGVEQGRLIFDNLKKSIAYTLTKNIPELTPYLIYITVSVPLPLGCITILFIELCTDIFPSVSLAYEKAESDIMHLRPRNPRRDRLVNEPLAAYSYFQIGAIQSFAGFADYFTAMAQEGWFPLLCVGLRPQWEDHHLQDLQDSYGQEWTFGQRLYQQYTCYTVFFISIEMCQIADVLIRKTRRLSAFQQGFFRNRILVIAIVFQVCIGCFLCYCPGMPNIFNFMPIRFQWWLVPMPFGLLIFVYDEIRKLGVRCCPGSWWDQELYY", "sequence (P18598 whole entry partner)": "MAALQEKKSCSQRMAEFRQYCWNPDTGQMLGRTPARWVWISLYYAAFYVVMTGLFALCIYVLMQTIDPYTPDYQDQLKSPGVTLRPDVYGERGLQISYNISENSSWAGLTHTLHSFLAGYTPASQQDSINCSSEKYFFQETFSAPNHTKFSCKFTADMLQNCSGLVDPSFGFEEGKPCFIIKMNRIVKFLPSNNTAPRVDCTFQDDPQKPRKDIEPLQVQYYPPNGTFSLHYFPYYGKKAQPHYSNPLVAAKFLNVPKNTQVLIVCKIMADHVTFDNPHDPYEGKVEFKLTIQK", "test": "Measurement of H+-K+-ATP enzyme activity in gastric ulcer rats", "conditions": "2.7 mg/kg, seven consecutive days, mean ± SD, n = 6"}, "MDA": {"test_system": "MDA", "test": "Measurement of MDA (lipid peroxidation, TBARS) in gastric ulcer rats", "conditions": "2.7 mg/kg, seven consecutive days, mean ± SD, n = 6"}, "[3]": {"conditions": "capsules containing enteric-coated granules; cited from earlier work"}, "[4]": {"test_system": "glacial acetic-acid-induced gastric ulcer", "test": "Histopathological observation (H&E) of gastric mucosa, glacial acetic-acid-induced gastric ulcer", "format": "in vivo, rat", "conditions": "treatment with LSZ compared to the model group", "experimental": "Cross-sections with a thickness of 4 µm were then papered for hematoxylin and eosin (H&E) staining. All specimens were assessed under a light microscopy."}, "[5]": {"test_system": "glacial acetic-acid-induced gastric ulcer", "test": "Macroscopic gastric ulcer assay in the glacial acetic-acid-induced gastric ulcer model", "format": "in vivo, rat", "experimental": "The gastric ulcer index (UI) was the total area of ulcer. The gastroprotection (%) was calculated and used for macroscopic gastric ulcer assay."}, "SOD": {"test_system": "SOD", "test": "Measurement of SOD level in gastric ulcer rats", "conditions": "2.7 mg/kg, seven consecutive days, mean ± SD, n = 6"}, "VEGF [6]": {"test_system": "VEGF", "test": "Immunohistochemistry evaluation of gastric tissue for VEGF", "format": "in vivo, rat", "conditions": "the LSZ group, p < 0.01", "experimental": "(§2) Gastric tissues were post fixed in 4% paraformaldehyde overnight at 4 °C before routine paraffin sections (4 μm) were prepared for immunohistochemical staining. Paraffin-embedded slices of tissues were incubated overnight at 4 °C with primary rabbit anti-VEGF and anti-COX-2 antibody (1:200, Thermo). After rinsing, sections were incubated in biotinylated goat anti-rabbit IgG (1:200, Maixin) at 37 °C for 30 min and were subsequently incubated in streptavidin-peroxidase conjugate (1:200, Maixin) at 37 °C for 30 min. The sections were developed with 3,3′-diaminobenzidine (DAB) in a chromogen solution and counter-stained with hematoxylin. Images were obtained using an Olympus BX-61microscope (Tokyo, Japan)."}, "VEGF [7]": {"test_system": "VEGF", "test": "Western blotting determination of gastric tissue for VEGF", "format": "in vivo, rat", "conditions": "LSZ versus model group, p < 0.01", "experimental": "as §1"}, "COX-2 [8]": {"test_system": "COX-2", "test": "Immunohistochemistry evaluation of gastric tissue for COX-2", "format": "in vivo, rat", "conditions": "the LSZ group, p < 0.01", "experimental": "as §2"}, "[9]": {"conditions": "nominal concentration 10 ng·mL^−1"}, "[10]": {"conditions": "nominal concentration 125 ng·mL^−1"}, "[11]": {"conditions": "nominal concentration 2000 ng·mL^−1"}}}
{"compound": "Cc1c(OCC(F)(F)F)ccnc1C[S+]([O-])c1nc2ccccc2[nH]1", "note": "(stereo not drawn) [LSZ, Lansoprazole]", "values": [{"measurement": "Expression of COX-2 protein (Western blot)", "setting": "COX-2 [1]", "result": "significantly increase"}, {"measurement": "Stability in dog plasma, 3 Freeze-Thaw Cycles", "setting": "[2]; [9]", "result": 9.64}, {"measurement": "Stability in dog plasma, 45 Days, −20 °C", "setting": "[2]; [9]", "result": 9.11}, {"measurement": "Stability in dog plasma, 10 h, 4 °C", "setting": "[2]; [9]", "result": 9.35}, {"measurement": "Stability in dog plasma, 24 h, Room Temperature", "setting": "[2]; [9]", "result": 10.00}, {"measurement": "Stability in dog plasma, 3 Freeze-Thaw Cycles", "setting": "[2]; [10]", "result": 119.79}, {"measurement": "Stability in dog plasma, 45 Days, −20 °C", "setting": "[2]; [10]", "result": 123.82}, {"measurement": "Stability in dog plasma, 10 h, 4 °C", "setting": "[2]; [10]", "result": 124.51}, {"measurement": "Stability in dog plasma, 24 h, Room Temperature", "setting": "[2]; [10]", "result": 132.80}, {"measurement": "Stability in dog plasma, 3 Freeze-Thaw Cycles", "setting": "[2]; [11]", "result": 2128.46}, {"measurement": "Stability in dog plasma, 45 Days, −20 °C", "setting": "[2]; [11]", "result": 1853.17}, {"measurement": "Stability in dog plasma, 10 h, 4 °C", "setting": "[2]; [11]", "result": 2088.22}, {"measurement": "Stability in dog plasma, 24 h, Room Temperature", "setting": "[2]; [11]", "result": 2024.38}, {"measurement": "H^+-K^+-ATP enzyme activity", "setting": "H^+-K^+-ATP enzyme", "result": "7.91 ± 0.76", "unit": "mmol/g/h"}, {"measurement": "MDA", "setting": "MDA", "result": "75.32 ± 10.77", "unit": "μmol*g^−1 Pro"}, {"measurement": "Time of peak concentration after oral administration", "setting": "[3]", "result": "≤ 1 ± 2", "unit": "h"}, {"measurement": "Histological evaluation of gastric mucosa (submucosal edema, epithelial cell loss)", "setting": "[4]", "result": "protective effect on gastric mucosa"}, {"measurement": "Gastroprotection (%)", "setting": "[5]; rats, intragastric, 2.7 mg/kg, seven consecutive days", "result": 29.8, "unit": "%"}, {"measurement": "UI", "setting": "[5]; rats, intragastric, 2.7 mg/kg, seven consecutive days, UI = total area of ulcer, mean ± SD, n = 6", "result": "28.30 ± 7.29"}, {"measurement": "Macroscopic gastric lesions", "setting": "[5]; treatment with LSZ compared to the model group", "result": "significantly reduced"}, {"measurement": "SOD", "setting": "SOD", "result": "170.12 ± 13.19", "unit": "μmol*g^−1 Pro"}, {"measurement": "Expression of VEGF (immunohistochemistry)", "setting": "VEGF [6]", "result": "increased expression"}, {"measurement": "Expression of VEGF protein (Western blot)", "setting": "VEGF [7]", "result": "significantly increase"}, {"measurement": "Expression of COX-2 (immunohistochemistry)", "setting": "COX-2 [8]", "result": "increased expression"}]}
